The target of data set [1] is T1, acetylcholinesterase (AChE) from electric eel (Electrophorus electricus, UniProt O42275).
T1 construct: purchased Sigma
Description: AChE inhibition, spectrophotometric Ellman's method. The format is biochemical, Electrophorus electricus L. The following applies: for IC50: electric eel AChE, Ellman's method, mean ± SD (n = 3 experiments); for AChE inhibition, fold higher than RIV: IC50 compared with rivastigmine. How it is done: The ability of the tested compounds to inhibit acetylcholinesterase (purchased from Sigma) from electric eel (Electrophorus electricus L.) was tested. […] The IC50 values were determined by the spectrophotometric Ellman’s method.
The IC50 values were determined using the spectrophotometric Ellman’s method, which is a simple, rapid and direct method to determine the SH and -S-S- group content in proteins. This method is widely used for measuring of cholinesterase activity and effectivity of cholinesterase inhibitors. Cholinesterase activity is measured indirectly by quantifying the concentration of 5-thio-2-nitrobenzoic acid (TNB) ion formed in the reaction between the thiol reagent 5,5′-dithiobis-2-nitrobenzoic acid (DTNB) and thiocholine, a product of substrate (i.e., acetylthiocholine, ATCh) hydrolysis by cholinesterase. All tested compounds were dissolved in dioxane (concentration 0.01 M) and then diluted in demineralised water (concentration 0.001 M and 0.0001 M). The procedure of determination of IC50 is a slightly modified Ellman’s method according to Zdrazilova and described in detail in [49]. For determination of IC50 values the inhibition was determined for 25 different compound concentrations with three replicates.
In general terms: Ellman's reagent forms a yellow product with free thiols.

A short description of data set [2]: Lipophilicity determination by RP-HPLC (capacity factor k / log k). The format is physicochemical. The conditions noted are these: Symmetry C18, MeOH 70% / H2O 30%, column 45 °C. From the text:
A Waters Alliance 2695 XE HPLC separation module and a Waters Photodiode Array Detector 2996 (Waters Corp., Milford, MA, USA) were used. A Symmetry® C18 5 μm, 4.6 × 250 mm chromatographic column, Part No. WAT054275 (Waters Corp., Milford, MA, USA) was used. The HPLC separation process was monitored by Empower™ 2 Chromatography Data Software, Waters 2009 (Waters Corp., Milford, MA, USA). A mixture of MeOH p.a. (70%) and H2O-HPLC–Mili-Q Grade (30%) was used as a mobile phase. The total flow of the column was 1.0 mL/min, injection volume, 30 μL, column temperature, 45 °C and sample temperature, 10 °C. The detection wavelength of 210 nm was chosen. The KI methanolic solution was used for the dead time (tD) determination. The retention times (tR) were measured in minutes. The capacity factors k were calculated using the Empower™ 2 Chromatography Data Software according to formula k = (tR− tD)/tD, where tR is the retention time of the solute, whereas tD denotes the dead time obtained using an unretained analyte. Log k, calculated from the capacity factor k, is used as the lipophilicity index converted to log P scale.

Each structure is given as a SMILES string.

T1 sequence (O42275 24-633): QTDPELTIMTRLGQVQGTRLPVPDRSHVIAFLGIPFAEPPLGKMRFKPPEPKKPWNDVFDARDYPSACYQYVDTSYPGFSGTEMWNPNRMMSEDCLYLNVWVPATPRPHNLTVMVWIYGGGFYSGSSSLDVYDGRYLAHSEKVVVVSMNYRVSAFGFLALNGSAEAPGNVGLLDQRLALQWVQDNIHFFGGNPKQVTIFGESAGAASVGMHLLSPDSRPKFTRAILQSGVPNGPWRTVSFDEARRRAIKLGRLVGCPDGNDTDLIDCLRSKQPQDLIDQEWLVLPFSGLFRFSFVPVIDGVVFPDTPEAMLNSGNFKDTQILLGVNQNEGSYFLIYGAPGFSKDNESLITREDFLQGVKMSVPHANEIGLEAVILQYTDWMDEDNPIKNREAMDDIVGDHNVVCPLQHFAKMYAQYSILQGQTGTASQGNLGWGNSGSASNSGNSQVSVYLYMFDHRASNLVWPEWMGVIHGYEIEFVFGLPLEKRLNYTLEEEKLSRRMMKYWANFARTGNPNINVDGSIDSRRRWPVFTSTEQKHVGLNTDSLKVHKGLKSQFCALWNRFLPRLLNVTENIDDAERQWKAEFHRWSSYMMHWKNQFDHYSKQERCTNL

For `CCCCCCCCCCCNC(=O)Oc1ccc(Cl)cc1C(=O)Nc1cccc(Cl)c1` [4i], in data set [1], inhibition was half-maximal at 56.9 ± 0.48 µM (IC50). This compound had a log k in data set [2] of 0.7902.

For `CCCCCCCCCCNC(=O)Oc1ccc(Cl)cc1C(=O)Nc1ccc(Cl)cc1` [5h], in data set [1], the midpoint of inhibition, the IC50, lay at 64.6 ± 0.41 µM. Further, the log k in data set [2] amounted to 0.7942.

In data set [1], `CCCCCCCCCCCNC(=O)Oc1ccc(Cl)cc1C(=O)Nc1ccc(Cl)cc1` [5i] registered a concentration for half-maximal inhibition (IC50) of 44.3 ± 0.33 µM. The compound also registered a log k in data set [2] of 0.7947.

On to `CCCCCCCCCNC(=O)Oc1ccc(Cl)cc1C(=O)Nc1ccc(Cl)c(Cl)c1` [6g], for which half-maximal inhibition in data set [1] (IC50) required 43.9 ± 0.32 µM. This compound showed a log k in data set [2] of 1.0880.

The compound `CCCCCCCNC(=O)Oc1ccc(Cl)cc1C(=O)Nc1ccc(Cl)cc1` [5e] came in with a 50% inhibitory concentration (IC50) in data set [1] of 49.4 ± 0.31 µM. Further, the log k in data set [2] amounted to 0.7872.

The compound `CCCCCCNC(=O)Oc1ccc(Cl)cc1C(=O)Nc1ccc(Cl)cc1` [5d] gave an IC50 in data set [1] of 31 ± 0.29 µM. For the same compound, the log k in data set [2] worked out at 0.7859.

In data set [1], `CCCCCCCCNC(=O)Oc1ccc(Cl)cc1C(=O)Nc1cccc(Cl)c1` [4f] gave a concentration for half-maximal inhibition (IC50) of 69.9 ± 0.49 µM. The same compound showed a log k in data set [2] of 0.7831.

Compound `CCCCNC(=O)Oc1ccc(Cl)cc1C(=O)Nc1ccc(Cl)cc1` [5b] returned an IC50 in data set [1] of 48.1 ± 0.31 µM. The log k in data set [2] is given as 0.7759.

Take `CCCCCCCCCCCNC(=O)Oc1ccc(Cl)cc1C(=O)Nc1ccc(Cl)c(Cl)c1` [6i]: in data set [1], the “AChE inhibition, fold higher than RIV” value was 16 fold and the IC50 came to 29.9 ± 0.22 µM. This compound displayed a log k in data set [2] of 1.0903.

Turning to `CCNC(=O)Oc1ccc(Cl)cc1C(=O)Nc1ccc(Cl)cc1` [5a], in data set [1], half-maximal inhibition (IC50) was put at 59.1 ± 0.33 µM. In data set [2], this compound showed a log k of 0.7695.

As to `CCCCCCNC(=O)Oc1ccc(Cl)cc1C(=O)Nc1cccc(Cl)c1` [4d], in data set [1], it took 35.1 ± 0.31 µM to reach half-maximal inhibition (IC50). In data set [2], the log k was determined as 0.7758.

Consider `CCCCCCCCCCNC(=O)Oc1ccc(Cl)cc1C(=O)Nc1ccc(Cl)c(Cl)c1` [6h], for which, in data set [1], the “AChE inhibition, fold higher than RIV” value is recorded as 23 fold and the IC50 was 21.8 ± 0.2 µM. The log k in data set [2] worked out at 1.0894.

Consider `CCCCCNC(=O)Oc1ccc(Cl)cc1C(=O)Nc1cccc(Cl)c1` [4c], for which 50.4 ± 0.48 µM corresponded to half-maximal inhibition in data set [1] (IC50). In data set [2], the log k came out at 0.7732.

For `CCCCCCCCCCNC(=O)Oc1ccc(Cl)cc1C(=O)Nc1cccc(Cl)c1` [4h], the half-maximal inhibitory concentration (IC50) in data set [1] was found to be 52.7 ± 0.45 µM. Further, the log k in data set [2] is 0.7873.

Consider `CCCCCCCNC(=O)Oc1ccc(Cl)cc1C(=O)Nc1ccc(Cl)c(Cl)c1` [6e], for which half-maximal inhibition in data set [1] (IC50) was put at 36.7 ± 0.28 µM. Moreover, the log k in data set [2] is recorded as 1.0667.

In the case of `CCCCCCCNC(=O)Oc1ccc(Cl)cc1C(=O)Nc1cccc(Cl)c1` [4e], in data set [1], the IC50 is 61.7 ± 0.5 µM. In data set [2], this compound yielded a log k of 0.7772.

On to `CCCCCCCCCNC(=O)Oc1ccc(Cl)cc1C(=O)Nc1cccc(Cl)c1` [4g], for which, in data set [1], half-maximal inhibition (IC50) was put at 34.2 ± 0.26 µM. Further, the log k in data set [2] was determined as 0.7837.

In turn, `CCCCCCCCNC(=O)Oc1ccc(Cl)cc1C(=O)Nc1ccc(Cl)c(Cl)c1` [6f] had an IC50 in data set [1] of 32.1 ± 0.29 µM. In addition, the log k in data set [2] stood at 1.0845.

Regarding `CCCCNC(=O)Oc1ccc(Cl)cc1C(=O)Nc1ccc(Cl)c(Cl)c1` [6b], half-maximal inhibition in data set [1] (IC50) required 64.7 ± 0.79 µM. The same compound returned a log k in data set [2] of 1.0457.

Turning to `CCNC(=O)Oc1ccc(Cl)cc1C(=O)Nc1cccc(Cl)c1` [4a], the log k in data set [2] is 0.7523.

In data set [1], `CCCCCCNC(=O)Oc1ccc(Cl)cc1C(=O)Nc1ccc(Cl)c(Cl)c1` [6d] gave a half-inhibitory concentration (IC50) of 41.2 ± 0.36 µM. The log k in data set [2] is recorded as 1.0611.

Turning to `CCCCCNC(=O)Oc1ccc(Cl)cc1C(=O)Nc1ccc(Cl)cc1` [5c], in data set [1], 41.7 ± 0.29 µM corresponded to half-maximal inhibition (IC50). For the same compound, in data set [2], the log k worked out at 0.7838.

For `CCCCCNC(=O)Oc1ccc(Cl)cc1C(=O)Nc1ccc(Cl)c(Cl)c1` [6c], in data set [1], half-maximal inhibition (IC50) was put at 56 ± 0.42 µM. In addition, in data set [2], the log k is 1.0601.

For the compound `CCNC(=O)Oc1ccc(Cl)cc1C(=O)Nc1ccc(Cl)c(Cl)c1` [6a], in data set [1], the half-maximal inhibitory concentration (IC50) worked out at 67.3 ± 0.52 µM. In data set [2], the log k is on record as 1.0234.

Take `CCCCNC(=O)Oc1ccc(Cl)cc1C(=O)Nc1cccc(Cl)c1` [4b]: the log k in data set [2] came out at 0.7611.

In data set [1], `CCCCCCCCCNC(=O)Oc1ccc(Cl)cc1C(=O)Nc1ccc(Cl)cc1` [5g] showed a concentration for half-maximal inhibition (IC50) of 52.2 ± 0.39 µM. In data set [2], this compound came in with a log k of 0.7919.

Consider `CCCCCCCCNC(=O)Oc1ccc(Cl)cc1C(=O)Nc1ccc(Cl)cc1` [5f], for which, in data set [1], the 50% inhibitory concentration (IC50) came out at 62.5 ± 0.41 µM. For the same compound, the log k in data set [2] came to 0.7899.

What is called IC50 is the concentration needed to halve the response being measured.

The values are drawn from PMC6268027, “Acetylcholinesterase-Inhibiting Activity of Salicylanilide N-Alkylcarbamates and Their Molecular Docking” (Molecules, 2012).
